Results on four molecules are retold here after patent US11213508B2, “Compositions comprising urolithins and uses thereof for the stimulation of insulin secretion” (Centre National de la Recherche Scientifique (CNRS), priority 2013, dated 2022).

Assay [1] concerns INS-1 insulin-secreting β-cells. The assay can be described thus: Insulin secretion in INS-1 cells in the presence of oxidative stress (H2O2). It is filed as cell-based. The note with it: 8.3 mmol·L^−1 glucose + H2O2; for concentration active in preventing insulin secretion impairment induced by H2O2: lowest active concentration. On the procedure:
Before the treatment, RPMI medium was removed and the cells were washed twice with HEPES-balanced Krebs-Ringer bicarbonate buffer (KRB) containing (in mmol·L^−1): 123 NaCl, 5.4 KCl, 1.3 KH2PO4, 2.7 MgSO4, 2.9 CaCl2, 5 NaHCO3 and 20 HEPES, pH 7.5, with 2 g·L^−1 bovine serum albumin (KRB/BSA). Cells were incubated for 1 h (5% CO2, 37° C.) in KRB medium containing 8.3 mmol·L^−1 glucose (glucose-stimulated secretion) in the presence or absence of the compounds tested. At the end of the 1 h incubation period, the medium was sampled and stored at −20° C. until the insulin assay. Insulin concentration in cell supernatants was determined using the homogeneous time resolved fluorescence technology (HTRF), according to the manufacturer's instructions (HTRF insulin assay kit, Cisbio International, Bagnols-sur-Ceze, France). Briefly, two anti-insulin antibodies were used; one labelled with Eu^3+-Cryptate and one labelled with XL665 recognizing distinct epitopes. When these two fluorophores bind to insulin molecules, the two antibodies come into close proximity, allowing fluorescence resonance energy transfer (FRET) to occur between the Eu^3+-Cryptate and the XL665. This FRET increases proportionally with the insulin concentrations. All the experiments were performed at least in quadruplicate.
(§1) For protection experiments, INS-1 cells were pre-incubated with the indicated concentrations of urolithins for one hour (5% CO2, 37° C.) in RPMI medium. After two washes in HEPES-balanced Krebs-Ringer bicarbonate buffer (123 mmol·L^−1 NaCl, 5.4 mmol·L^−1 KCl, 1.3 mmol·L^−1 KH2PO4, 2.7 mmol·L^−1 MgSO4, 2.9 mmol·L^−1 CaCl2, 5 mmol·L^−1 NaHCO3 and 20 mmol·L^−1 HEPES, pH 7.5) containing 2 g·L^−1 bovine serum albumin (KRB/BSA), INS-1 cells were incubated for one hour (5% CO2, 37° C.) in KRB/BSA containing urolithins at the indicated concentrations in the presence of 1.4 mmol·L^−1 glucose (basal condition) or 8.3 mmol·L^−1 glucose (stimulant condition). When used, H2O2 (50 gmol·L^−1) was added at the beginning of the one-hour incubation period. Control experiments were performed in the basal condition, in the absence of urolithins during the pre-incubation and incubation periods.
Insulin secretion was determined as described above by measuring insulin accumulation after a one-hour incubation period.

For assay [2] the test system is unchanged. The assay can be described thus: INS-1 cell viability (MTT) in the presence of oxidative stress (H2O2). To be noted: 20 μmol·L^−1 urolithin; 8.3 mmol·L^−1 glucose + H2O2. The class given is cell-based. On the procedure:
as §1
Cell viability was determined using the 3-(4,5-Dimethylthiazol-2-yl)-2,5-diphenyltetrazolium bromide (MTT) assay. At the end of the one-hour incubation period, cells were washed with KRB/BSA and KRB/BSA containing 5 mg/ml MTT was added to each well. Plates were then incubated for 3 h in the dark in a humidified atmosphere (5% CO2, 37° C.). Cells were washed with phosphate buffered saline (PBS) and precipitates were dissolved in 50 μl dimethyl sulfoxide (DMSO). Absorbance of the reduced intracellular formazan product was read at 492 nm on a microtiter plate reader (Tecan, Lyon, France). Experiments were performed in quadruplicate.

On to `O=c1oc2c(O)c(O)ccc2c2cc(O)c(O)cc12` [Urolithin D, urolithin D], for which, in assay [1], the concentration active in preventing insulin secretion impairment induced by H2O2 was 5 µM. Also, the “prevention of viability impairment induced by H2O2 (MTT)” value (shortened to “prevention”) in assay [2] is recorded as “totally prevent viability impairment”.

Turning to `O=c1oc2cc(O)ccc2c2cc(O)c(O)cc12` [Urolithin C, urolithin C], the “insulin secretion stimulation as compared to control conditions” value in assay [1] (20 μmol·L^−1) came out at 200%. For the same molecule, the concentration active in preventing insulin secretion impairment induced by H2O2 in assay [1] was determined as 5 µM. For the same molecule, the “prevention” value in assay [2] was “totally prevent viability impairment”.

Consider `O=c1oc2cc(O)ccc2c2ccccc12` [Urolithin B, urolithin B], for which, in assay [1] (20 μmol·L^−1), the “insulin secretion stimulation as compared to control conditions” value amounted to 200%. In assay [1], the “insulin secretion stimulation as compared to control conditions” value was determined as 150% and the concentration active in preventing insulin secretion impairment induced by H2O2 is 5 µM. The “prevention” value in assay [2] is “partially active”.

Regarding `O=c1oc2cc(O)ccc2c2ccc(O)cc12` [Urolithin A, urolithin A], in assay [1], the concentration active in preventing insulin secretion impairment induced by H2O2 was determined as 20 µM. The “prevention” value in assay [2] is reported as “no effect”.
